The results in this text go back to patent US11000535B2, “Anticancer composition and use thereof” (KAOHSIUNG MEDICAL UNIVERSITY, priority 2015, dated 2021).

Values after ≈ are worked out from the molar mass of the structure shown.

One test relates to HepG2 cells. Put plainly: alamarBlue cell viability, HepG2. It counts as cell-based, human. An excerpt:
Next, we analyzed the effect of PGG on cell proliferation in different liver cancer cell lines, including Huh7, Hep3B (ATCC-No 8064), HepG2 (ATCC HB-8065), SK-HEP-1 (ATCC HTB-52), Mahlavu and HepG2 (ATCC HB-8065).
Please refer to FIG. 18, which illustrates the effect of PGG on cell proliferation in different liver cancer cell lines, wherein the numeral 1 denotes Huh7 cells, the numeral 2 denotes Hep3B cells, the numeral 3 denotes SK-HEP-1 cells, the numeral 4 denotes Mahlavu cells, and the numeral 5 denotes HepG2 cells. And cell viability was determined by the alamarBlue® viability assay. IC50 values of PGG in each cell line are shown as follows: Huh7 cells 0.03 mg/mL, Hep3B cells 0.07 mg/mL, SK-HEP-1 cells, Mahlavu cells and HepG2 0.10 mg/mL dose-dependent.
Human liver cancer cell lines Huh7, Hep G2, Hep 3B, SK-HEP-1, Mahlavu and embryonic kidney cell line HEK-293T all were cultured in Dulbecco's Modified Eagle's Medium (DMEM) (Gibco BRL, Grand Island, N.Y., USA) with 10% heat-inactivated fetal bovine serum (HyClone, Logan, Utah, USA), penicillin (100 U/mL), streptomycin ([…]), nonessential amino acids (0.1 mM/L) and L-glutamine (2 mM/L) in a humidified incubator with 5% CO2.
(In general: The colour change of resazurin is a common sign of viable cells or microbes.)

The subject of test [1] is Huh7 cells. Put plainly: Colony formation assay. It counts as cell-based, human. The settings on record: 7 days. Here is the method:
For the colony assay, Huh7 cells were seeded. […] Numbers of surviving colonies were analyzed.

The subject of test [2] is Huh7 cells. Put plainly: Antitumor effect of PGG, Huh7 xenograft. It counts as in vivo, nude mice. The settings on record: 300 mpk, once a day for 10 days. As to the method: To test the antitumor effect of PGG in vivo, Huh7 cells were implanted subcutaneously into nude mice.
By the same token, mice were subcutaneously injected with Huh7 cells (2×10^6) in order to test the anti-tumor effect of PGG in vivo.
Tumor growth was monitored (every day or three times per week) by using Vernier caliper measurement of the length (L) and width (W) of the tumor.
Tumor volume (TV) was calculated by using the formula volume=(L×W^2)/2.

The test system of the next test is GNMT. The test can be described thus: GNMT mRNA and protein expression in Huh7 cells (qPCR, immunoblot). Type of test: cell-based, human. As to the method: (§1) RNA was prepared by using Tri Reagent (Sigma-Aldrich, St Louis, Mo., USA) and was reverse transcribed into cDNA using a Super Script II Reverse Transcriptase Kit (Invitrogen Inc., Carlsbad, Calif., USA).
(§2) PCR was performed on an ABI StepOne Plus System (Applied Biosystems, Foster City, Calif., USA) using the LightCycler® First Start DNA Master SYBR Green I reagent (Roche Diagnostics, Basel, Switzerland). The mRNA level was normalized using the TATA-box binding protein (TBP) mRNA level as the standard.
The following primers were used: GNMT forward, 5′-ACTGGATGACT CTGGACAA-3′ (SEQ ID NO. 3) and reverse, 5′-ACTGAGGATGTGGTCGT-3′(SEQ ID NO. 4); TBP forward, 5′-[…]-3′ (SEQ ID NO. 5) and reverse, 5′-[…]-3′(SEQ ID NO. 6); c-Myc forward, […](SEQ ID NO. 7) and reverse, […](SEQ ID NO. 8).
Cells or xenograft tumors were harvested with RIPA lysis buffer (50 mM Tris (pH 7.5), 150 mM NaCl, 1% Triton X-100, 0.1% sodium dodecyl sulfate (SDS), 0.5% sodium deoxycholate, supplemented with protease and phosphatase inhibitors (1 mM Phenylmethanesulfonyl Fluoride (PMSF), […], […] Tosyllysine Chloromethyl Ketone (TLCK), […] Tosyl phenylalanyl chloromethyl ketone (TPCK), […] aprotinin, 1 mM sodium fluoride (NaF), 5 mM sodium pyrophosphate (NaPPi) and 10 mM sodium orthovanadate (Na3VO4).
Protein lysates were quantified and separated on SDS-PAGE gel, and immunoblotting was carried out.
The following antibodies were used: anti-GNMT (14-1, YMAC Bio Tech, Taiwan), anti-caspase-3 (9H19L2, Thermo Scientific) and anti-actin (AC-15, Sigma-Aldrich).
In general terms: In qPCR the cycle at which signal appears reflects the starting amount.

The next test deals with c-Myc. Put plainly: c-Myc expression in xenograft tumors. It counts as in vivo, mice. The note with it: FIG. 34 c-Myc/actin (PGG); FIG. 35 mRNA (F3-6 25 and 300 mpk). Here is the method:
Please refer to FIGS. 34-35. FIG. 34 illustrates c-Myc/actin expression ratio in the tumor after treatments, wherein the numeral 1 is for the solvent, and the numeral 2 is for PGG. FIG. 35 illustrates c-Myc in RNA expression in the tumor after treatments, wherein the numeral 1 is for the solvent, the numeral 2 is for F3-6 (25 mpk), and the numeral 3 is for F3-6 (300 mpk).
as §1, §2
The following primers were used: GNMT forward, 5′-ACTGGATGACT CTGGACAA-3′ (SEQ ID NO. 3) and reverse, 5′-ACTGAGGATGTGGTCGT-3′(SEQ ID NO. 4); TBP forward, 5′-[…]-3′ (SEQ ID NO. 5) and reverse, 5′-[…]-3′(SEQ ID NO. 6); c-Myc forward, […](SEQ ID NO. 7) and reverse, […](SEQ ID NO. 8). […]

`O=C(OC[C@H]1O[C@@H](OC(=O)c2cc(O)c(O)c(O)c2)[C@H](OC(=O)c2cc(O)c(O)c(O)c2)[C@@H](OC(=O)c2cc(O)c(O)c(O)c2)[C@@H]1OC(=O)c1cc(O)c(O)c(O)c1)c1cc(O)c(O)c(O)c1` [PGG, 1,2,3,4,6-penta-O-galloyl-β-D-glucopyranoside]: in the test with HepG2 cells, the IC50 (commonly the point on the concentration scale where inhibition reaches its midpoint) is 100 µg/mL (≈ 106 µM). Moreover, the “inhibition of colony formation” value with Huh7 cells [1] (0.05 mg/ml or higher) is 95%. Moreover, the “formation of Huh7 cell populations (colonies), dose dependence” value in the test with Huh7 cells [1] is “dose-dependent manner”. Also, the “tumor growth (tumor volume) vs control group” value in the test on Huh7 cells [2] is recorded as “significant inhibition in tumor growth”. In the test on GNMT (0.1 mg/ml, Huh7 cells), the “GNMT mRNA expression” value was “induced GNMT mRNA expression” and the GNMT protein expression result was “induced GNMT protein expression”. In addition, the “time of optimal induced effect on GNMT” value in the test with GNMT (after administration, qPCR and immunoblot) came to 48 h. For the same compound, the “expression of c-Myc in the tumor xenograft mice” value in the test with c-Myc is listed as “lowers the expression of c-Myc”.
